{"source": "ChEMBL document CHEMBL1147725", "about": "“Identification and biological characterization of 6-aryl-7-isopropylquinazolinones as novel TRPV1 antagonists that are effective in models of chronic pain” (J Med Chem, 2006)", "key": {"[1]": {"tested_on": "Rattus norvegicus", "experiment": "Concentration in rat brain at 3 mg/kg, po after 4 hrs", "assay_type": "ADME, organism-based, Wistar Han", "design": "dose 3 mg/kg, route oral", "conditions": "in vivo"}, "[2]": {"tested_on": "Rattus norvegicus", "experiment": "Concentration in rat brain at 3 mg/kg, po after 0.16 hrs", "assay_type": "ADME, organism-based, Wistar Han", "design": "dose 3 mg/kg, route oral", "conditions": "in vivo"}, "[3]": {"experiment": "Aqueous solubility at pH 6.8 and 25 degC", "assay_type": "physicochemical", "conditions": "aqueous medium"}, "[4]": {"experiment": "Volume of distribution in rat at 1 mg/kg, iv", "assay_type": "ADME, organism-based", "design": "dose 1 mg/kg, route intravenous", "conditions": "Wistar Han, in vivo, read-out: Vdss"}, "[5]": {"tested_on": "Rattus norvegicus", "experiment": "Concentration in rat brain at 3 mg/kg, po after 2 hrs", "assay_type": "ADME, organism-based, Wistar Han", "design": "dose 3 mg/kg, route oral", "conditions": "in vivo"}, "[6]": {"experiment": "Plasma concentration in rat at 3 mg/kg, po after 18 hrs", "assay_type": "ADME, organism-based", "design": "dose 3 mg/kg, route oral", "conditions": "Wistar Han"}, "[7]": {"tested_on": "Rattus norvegicus", "experiment": "Concentration in rat brain at 10 mg/kg, po after 0.16 hrs", "assay_type": "ADME, organism-based, Wistar Han", "design": "dose 10 mg/kg, route oral", "conditions": "in vivo"}, "[8]": {"tested_on": "Rattus norvegicus", "experiment": "Concentration in rat brain at 1 mg/kg, iv after 0.083 hrs", "assay_type": "ADME, organism-based, Wistar Han", "design": "dose 1 mg/kg, route intravenous", "conditions": "in vivo"}, "[9]": {"experiment": "Plasma concentration in rat at 3 mg/kg, po after 1 hrs", "assay_type": "ADME, organism-based", "design": "dose 3 mg/kg, route oral", "conditions": "Wistar Han"}, "[10]": {"molecular_target": "Transient receptor potential cation channel subfamily V member 1 (Rattus norvegicus) (UniProt O35433)", "sequence (O35433 whole entry)": "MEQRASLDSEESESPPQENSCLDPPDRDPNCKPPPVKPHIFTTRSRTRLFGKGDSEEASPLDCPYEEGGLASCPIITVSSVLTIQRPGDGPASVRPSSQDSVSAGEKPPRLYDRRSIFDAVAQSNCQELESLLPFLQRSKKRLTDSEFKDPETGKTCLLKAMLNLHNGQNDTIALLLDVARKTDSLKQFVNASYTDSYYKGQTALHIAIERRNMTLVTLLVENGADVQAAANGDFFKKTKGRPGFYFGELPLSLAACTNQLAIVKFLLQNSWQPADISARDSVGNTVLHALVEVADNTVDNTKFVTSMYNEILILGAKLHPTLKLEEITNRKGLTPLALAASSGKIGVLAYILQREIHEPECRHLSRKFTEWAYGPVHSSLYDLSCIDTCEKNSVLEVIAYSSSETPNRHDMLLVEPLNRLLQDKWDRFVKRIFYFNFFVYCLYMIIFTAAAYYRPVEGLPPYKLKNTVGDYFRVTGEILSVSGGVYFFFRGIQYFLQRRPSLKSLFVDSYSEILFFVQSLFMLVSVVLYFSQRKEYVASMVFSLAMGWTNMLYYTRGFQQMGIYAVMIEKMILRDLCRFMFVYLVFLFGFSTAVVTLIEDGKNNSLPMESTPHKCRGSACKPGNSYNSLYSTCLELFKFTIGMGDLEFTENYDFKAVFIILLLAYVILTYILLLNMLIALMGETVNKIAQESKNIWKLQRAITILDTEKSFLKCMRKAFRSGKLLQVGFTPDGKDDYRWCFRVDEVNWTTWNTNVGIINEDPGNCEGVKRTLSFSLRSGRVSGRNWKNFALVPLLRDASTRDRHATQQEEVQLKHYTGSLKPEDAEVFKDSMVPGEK", "experiment": "Effect on inflammatory mechanical hyperalgesia in rat at 1 hr", "assay_type": "functional"}, "[11]": {"tested_on": "Rattus norvegicus", "experiment": "Concentration in rat brain at 10 mg/kg, po after 4 hrs", "assay_type": "ADME, organism-based, Wistar Han", "design": "dose 10 mg/kg, route oral", "conditions": "in vivo"}, "[12]": {"tested_on": "Rattus norvegicus", "experiment": "Concentration in rat brain at 1 mg/kg, iv after 0.5 hrs", "assay_type": "ADME, organism-based, Wistar Han", "design": "dose 1 mg/kg, route intravenous", "conditions": "in vivo"}, "[13]": {"experiment": "Plasma concentration in rat at 1 mg/kg, iv after 1.5 hrs", "assay_type": "ADME, organism-based", "design": "dose 1 mg/kg, route intravenous", "conditions": "Wistar Han"}, "[14]": {"tested_on": "Rattus norvegicus", "experiment": "Concentration in rat brain at 3 mg/kg, po after 0.5 hrs", "assay_type": "ADME, organism-based, Wistar Han", "design": "dose 3 mg/kg, route oral", "conditions": "in vivo"}, "[15]": {"experiment": "Plasma concentration in rat at 1 mg/kg, iv after 4 hrs", "assay_type": "ADME, organism-based", "design": "dose 1 mg/kg, route intravenous", "conditions": "Wistar Han"}, "[16]": {"tested_on": "Rattus norvegicus", "experiment": "Concentration in rat brain at 3 mg/kg, po after 1 hrs", "assay_type": "ADME, organism-based, Wistar Han", "design": "dose 3 mg/kg, route oral", "conditions": "in vivo"}, "[17]": {"experiment": "Plasma concentration in rat at 10 mg/kg, po after 1 hrs", "assay_type": "ADME, organism-based", "design": "dose 10 mg/kg, route oral", "conditions": "Wistar Han"}, "[18]": {"experiment": "Plasma concentration in rat at 10 mg/kg, po after 1.5 hrs", "assay_type": "ADME, organism-based", "design": "dose 10 mg/kg, route oral", "conditions": "Wistar Han"}, "[19]": {"experiment": "Plasma concentration in rat at 1 mg/kg, iv after 0.033 hrs", "assay_type": "ADME, organism-based", "design": "dose 1 mg/kg, route intravenous", "conditions": "Wistar Han"}, "[20]": {"experiment": "Plasma concentration in rat at 3 mg/kg, po after 1.5 hrs", "assay_type": "ADME, organism-based", "design": "dose 3 mg/kg, route oral", "conditions": "Wistar Han"}, "[21]": {"experiment": "Plasma concentration in rat at 10 mg/kg, po after 18 hrs", "assay_type": "ADME, organism-based", "design": "dose 10 mg/kg, route oral", "conditions": "Wistar Han"}, "[22]": {"experiment": "Permeability across Caco-2 cell membrane", "assay_type": "ADME, cell-based", "conditions": "human, read-out: permeability (converted)"}, "[23]": {"experiment": "Plasma concentration in rat at 10 mg/kg, po after 24 hrs", "assay_type": "ADME, organism-based", "design": "dose 10 mg/kg, route oral", "conditions": "Wistar Han"}, "[24]": {"tested_on": "Rattus norvegicus", "experiment": "Concentration in rat brain at 3 mg/kg, po after 6 hrs", "assay_type": "ADME, organism-based, Wistar Han", "design": "dose 3 mg/kg, route oral", "conditions": "in vivo"}, "[25]": {"experiment": "Plasma concentration in rat at 3 mg/kg, po after 4 hrs", "assay_type": "ADME, organism-based", "design": "dose 3 mg/kg, route oral", "conditions": "Wistar Han"}, "[26]": {"experiment": "Plasma concentration in rat at 10 mg/kg, po after 0.5 hrs", "assay_type": "ADME, organism-based", "design": "dose 10 mg/kg, route oral", "conditions": "Wistar Han"}, "[27]": {"tested_on": "Rattus norvegicus", "experiment": "Concentration in rat brain at 10 mg/kg, po after 0.5 hrs", "assay_type": "ADME, organism-based, Wistar Han", "design": "dose 10 mg/kg, route oral", "conditions": "in vivo"}, "[28]": {"experiment": "Plasma concentration in rat at 10 mg/kg, po after 2 hrs", "assay_type": "ADME, organism-based", "design": "dose 10 mg/kg, route oral", "conditions": "Wistar Han"}, "[29]": {"molecular_target": "Transient receptor potential cation channel subfamily V member 1 (Rattus norvegicus) (UniProt O35433)", "experiment": "Effect on capsaicin induced mechanical hyperalgesia in rat", "assay_type": "functional"}, "[30]": {"experiment": "Plasma concentration in rat at 3 mg/kg, po after 24 hrs", "assay_type": "ADME, organism-based", "design": "dose 3 mg/kg, route oral", "conditions": "Wistar Han"}, "[31]": {"experiment": "Tmax in rat brain at 3 mg/kg, po", "assay_type": "ADME, organism-based", "design": "dose 3 mg/kg, route oral", "conditions": "Wistar Han"}, "[32]": {"experiment": "Cmax in rat plasma at 3 mg/kg, po", "assay_type": "ADME, organism-based", "design": "dose 3 mg/kg, route oral", "conditions": "Wistar Han"}, "[33]": {"experiment": "Tmax in rat plasma at 3 mg/kg, po", "assay_type": "ADME, organism-based", "design": "dose 3 mg/kg, route oral", "conditions": "Wistar Han"}, "[34]": {"experiment": "Plasma concentration in rat at 10 mg/kg, po after 6 hrs", "assay_type": "ADME, organism-based", "design": "dose 10 mg/kg, route oral", "conditions": "Wistar Han"}, "[35]": {"experiment": "Plasma concentration in rat at 10 mg/kg, po after 4 hrs", "assay_type": "ADME, organism-based", "design": "dose 10 mg/kg, route oral", "conditions": "Wistar Han"}, "[36]": {"tested_on": "Rattus norvegicus", "experiment": "Concentration in rat brain at 10 mg/kg, po after 9 hrs", "assay_type": "ADME, organism-based, Wistar Han", "design": "dose 10 mg/kg, route oral", "conditions": "in vivo"}, "[37]": {"tested_on": "Rattus norvegicus", "experiment": "Concentration in rat brain at 10 mg/kg, po after 1 hrs", "assay_type": "ADME, organism-based, Wistar Han", "design": "dose 10 mg/kg, route oral", "conditions": "in vivo"}, "[38]": {"experiment": "Plasma concentration in rat at 1 mg/kg, iv after 1 hrs", "assay_type": "ADME, organism-based", "design": "dose 1 mg/kg, route intravenous", "conditions": "Wistar Han"}}}
{"smiles": "Cc1nc2cc(C(C)C)c(-c3ccc(Cl)c(OCC4CC4)c3)cc2c(=O)[nH]1", "values": [{"measurement": "Ct", "setting": "[1]", "value": 1666, "unit": "pmol/g"}, {"measurement": "Ct", "setting": "[2]", "value": 32, "unit": "pmol/g"}, {"measurement": "solubility", "setting": "[3]", "value": 0.8, "unit": "µg/mL"}, {"measurement": "Vd", "setting": "[4]", "value": 1.55, "unit": "L/kg"}, {"measurement": "Ct", "setting": "[5]", "value": 1364, "unit": "pmol/g"}, {"measurement": "concentration at 18 h", "setting": "[6]", "value": 90, "unit": "nM"}, {"measurement": "Ct", "setting": "[7]", "value": 16.4, "unit": "pmol/g"}, {"measurement": "Ct", "setting": "[8]", "value": 960, "unit": "pmol/g"}, {"measurement": "concentration at 1 h", "setting": "[9]", "value": 1530, "unit": "nM"}, {"measurement": "ED50", "setting": "[10]", "value": 4.7, "unit": "mg/kg"}, {"measurement": "Ct", "setting": "[11]", "value": 1515, "unit": "pmol/g"}, {"measurement": "Ct", "setting": "[12]", "value": 1079, "unit": "pmol/g"}, {"measurement": "concentration at 1.5 h", "setting": "[13]", "value": 1120, "unit": "nM"}, {"measurement": "Ct", "setting": "[14]", "value": 211, "unit": "pmol/g"}, {"measurement": "concentration at 4 h", "setting": "[15]", "value": 726, "unit": "nM"}, {"measurement": "Ct", "setting": "[16]", "value": 641, "unit": "pmol/g"}, {"measurement": "concentration at 1 h", "setting": "[17]", "value": 2680, "unit": "nM"}, {"measurement": "concentration at 1.5 h", "setting": "[18]", "value": 3720, "unit": "nM"}, {"measurement": "concentration at 0.033 h", "setting": "[19]", "value": 3540, "unit": "nM"}, {"measurement": "concentration at 1.5 h", "setting": "[20]", "value": 1790, "unit": "nM"}, {"measurement": "concentration at 18 h", "setting": "[21]", "value": 583, "unit": "nM"}, {"measurement": "Papp", "setting": "[22]", "value": 4.37, "unit": "×10⁻⁶ cm/s"}, {"measurement": "concentration at 24 h", "setting": "[23]", "value": 106, "unit": "nM"}, {"measurement": "Ct", "setting": "[24]", "value": 1258, "unit": "pmol/g"}, {"measurement": "concentration at 4 h", "setting": "[25]", "value": 1910, "unit": "nM"}, {"measurement": "concentration at 0.5 h", "setting": "[26]", "value": 1460, "unit": "nM"}, {"measurement": "Ct", "setting": "[27]", "value": 181, "unit": "pmol/g"}, {"measurement": "concentration at 2 h", "setting": "[28]", "value": 4340, "unit": "nM"}, {"measurement": "Activity", "setting": "[29]", "value": "Dose-dependent effect"}, {"measurement": "concentration at 24 h", "setting": "[30]", "value": 53, "unit": "nM"}, {"measurement": "Tmax", "setting": "[31]", "value": 4, "unit": "h"}, {"measurement": "Cmax", "setting": "[32]", "value": 1910, "unit": "nM"}, {"measurement": "Tmax", "setting": "[33]", "value": 4, "unit": "h"}, {"measurement": "concentration at 6 h", "setting": "[34]", "value": 3220, "unit": "nM"}, {"measurement": "concentration at 4 h", "setting": "[35]", "value": 5970, "unit": "nM"}, {"measurement": "Ct", "setting": "[36]", "value": 811, "unit": "pmol/g"}, {"measurement": "Ct", "setting": "[37]", "value": 522, "unit": "pmol/g"}, {"measurement": "concentration at 1 h", "setting": "[38]", "value": 1330, "unit": "nM"}]}
